Data from US20240132463A1, “SUBSTITUTED N-(2-(2,6-DIOXOPIPERIDIN-3-YL)-1,3-DIOXOISOINDOLIN-5-YL)ARYLSULFONAMIDE ANALOGS AS MODULATORS OF CEREBLON PROTEIN” (ST. JUDE CHILDREN'S RESEARCH HOSPITAL, INC., priority 2020, published 2024).

Experiments:
[1] = tested on: MV4-11 cells; test: Lenalidomide competition assay; format: cell-based, human; conditions: co-treatment with lenalidomide 10 μM, 72 h
Protocol: Compounds were screened in human cancer cell lines and each cell line was cultured in the complete medium recommended by the vendor and seeded in Corning 8804BC white 384-well assay plates at density of 1,000, 1,000, 1,000, 1,500 and 7,500 cells per well, for MV4-11, HD-MB03, MB004, MB002 and MHH-CALL4 cells respectively. After overnight incubation at 37° C. in a humidified 5% CO2 incubator, cells were treated with compounds in dose-response format using a Pintool on a Biomek FXP Laboratory Automation Workstation (Beckman Coulter). […] After 72 h incubation, cell proliferation was assessed using Cell Titer-Glo (CTG) luminescent cell viability assay (Promega) according to the manufacturer's instruction. Luminescence signal was measured using an Envision plate reader (Perkin-Elmer).

[2] = tested on: CRBN knockout MV4-11 cells; test: Cell viability in CRBN knockout MV4-11 cells; format: cell-based, human; conditions: CRBN knockout vs wild-type MV4-11 cells
Protocol: MV-4-11 cell line was purchased from the American Type Culture Collection (ATCC, Manassas, VA). The cells were cultured according to recommendations in IMDM cell culture media (ATCC). Exponentially growing MV-4-11 cells were plated at 1,000 cells per well in Corning 8804BC white 384-well assay plates and incubated overnight at 37° C. in a humidified 5% CO2 incubator. Compounds were transferred to the assay plate from a dose-response plate using a Pintool on a Biomek FXP Laboratory Automation Workstation (Beckman Coulter). Cytotoxicity was determined following 72 hours of incubation using Promega Cell Titer Glo reagent according to the manufacturer's recommendation. Luminescence was measured on an Envision plate reader (Perkin-Elmer).
CRBN-deficient MV4:11 cells were generated using CRISPR-Cas9 technology. […] Five days post nucleofection, cells were single-cell sorted by FACs to enrich for GFP+(transfected) cells, clonally selected, and verified for the desired targeted modification via targeted deep sequencing using gene specific primers with partial Illumina adapter overhangs (hCRBN.F—5′-[sequence]-3′ (SEQID: 6) and hCRBN.R—5′-[sequence]-3′, (SEQID: 7); overhangs not shown) and analyzed using CRIS.py (Ref. 36).

[3] = Liver microsomes stability assay (human); format: in vitro ADME
Protocol: (§1) The liver microsome stability assay was carried as previously described (Refs. 40-41). NADPH regenerating agent solutions A and B and mouse liver microsomes (CD-1) were obtained from BD Gentest (Woburn, MA). Pooled human liver microsomes were purchased from XenoTech (Lenexa, KS). Ninety-six deep well plates were obtained from Midsci (St. Louis, MO). Ninety-six analytical plates were obtained from Corning Incorporated (Acton, MA). Sample preparation for microsomal stability was modified from Di's publications. A set of incubation times of 0, 15, 30, 60, 120, and 240 min were used. DMSO stock solutions of test compounds and verapamil (system control) were prepared at 10 mM concentration. Concentrated human or mouse liver microsomes (20 mg/mL protein concentration) and 0.5 M EDTA were diluted into 0.1 M potassium phosphate buffer (pH 7.4) and mixed well, followed by compounds solutions being spiked. This solution was mixed and 90 μL was transferred to 6 time points plates (each in triplicate wells). For the time 0 h plate, 3 fold (v:v) cold acetonitrile with internal standard (40 ng/ml warfarin) was added to each well, followed by addition of NADPH regenerating agent (mixing NADPH solutions A and B in PBS, pH7.4) and no incubation. […] The metabolic stability was evaluated via the half-life from least-squares fit of the multiple time points based on first-order kinetics.

[4] = Liver microsomes stability assay (mouse); format: in vitro ADME
Protocol: as §1

[5] = Aqueous solubility assay; format: physicochemical; conditions: aqueous solubility at pH = 7.4, triplicate
Protocol: Solubility assays were carried out on a Biomek FX lab automation workstation (Beckman Coulter, Inc., Fullerton, CA) using μSOL Evolution software (pION Inc., Woburn, MA). 10 μL of 10 mM compound stock (in DMSO) was added to 190 μL 1-propanol to make a reference stock plate. 5 μL from this reference stock plate were mixed with 70 μL 1-propanol and 75 μL citrate phosphate-buffered saline (PBS;isotonic) to make the reference plate, and the UV spectrum (250-500 nm) of the reference plate was read. 6 μL of 10 mM test compound stock was added to 594 μL buffer in a 96-well storage plate and mixed. The storage plate was sealed and incubated at RT for 18 h. The suspension was then filtered through a 96-well filter plate (pION Inc., Woburn, MA). 75 μL of filtrate was mixed with 75 μL 1-propanol to make the sample plate, and the UV spectrum of the sample plate was read. Calculations were carried out with μSOL Evolution software based on the area under the curve (AUC) of the UV spectrum of the sample and reference plates. All compounds were tested in triplicate.

**Q.** Which “antiproliferative effect in presence of lenalidomide” value [1] does the source give for `O=C1CCC(N2C(=O)c3ccc(NS(=O)(=O)c4ccccc4OC(F)(F)F)cc3C2=O)C(=O)N1` (stereo not shown) [Compound 1, N-(2-(2,6-dioxopiperidin-3-yl)-1,3-dioxoisoindolin-5-yl)-2-(trifluoromethoxy)benzenesulfonamide] here?
**A.** abrogating the antiproliferative effects

**Q.** And the “antiproliferative activity in absence of CRBN” value [2]?
**A.** abolished

**Q.** What about the “intrinsic clearance Clint” value [3] of the same compound?
**A.** 4 mL/min/kg

**Q.** What about the “liver microsomes t1/2” value [3] of the same compound?
**A.** 5.7 h

**Q.** What about the “intrinsic clearance Clint” value [4] of the same compound?
**A.** 12 mL/min/kg

**Q.** And the “liver microsomes t1/2” value [4]?
**A.** 4.7 h

**Q.** And the Sol. [5]?
**A.** 67 µM
